The results in this text go back to patent publication US9206156B2, “Substituted indole derivatives” (GRÜNENTHAL GMBH, priority 2008, dated 2015).

For one assay, the target named is T1, ORL1 receptor (Homo sapiens, UniProt P41146).
T1 construct: expressed in transfected cells; host or cells: CHO (recombinant CHO-ORL1 cells), membranes
As to the kind of experiment: ORL1 receptor binding assay with 3H-nociceptin/orphanin FQ (WGA-SPA beads). The conditions noted are these: c=1 μM test substance; 0.5 nM 3H-nociceptin/orphanin FQ; membranes of recombinant CHO-ORL1 cells. Put shortly:
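Radioligand displacement on membranes from recombinant CHO-ORL1 cells, 0.5 nM 3H-nociceptin/orphanin FQ, 20 μg membrane protein per batch in 50 mM Hepes pH 7.4, 10 mM MgCl2, 1 mM EDTA. Incubated 1 h at room temperature with WGA-SPA beads, scintillation read. Reported as Ki (nM) or % inhibition at 1 μM.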

Another assay addresses T2, human μ-opiate receptor (Homo sapiens, UniProt P35372).
T2 construct: purchased NEN, Zaventem, Belgium RB-HOM; host or cells: CHO-K1 cells (membrane preparation)
As to the kind of experiment: μ-opiate receptor binding assay with [3H] naloxone (WGA-SPA beads). The conditions noted are these: 1 μmol/l test substance, 1 nmol/l [3H] naloxone, CHO-K1 cell membranes expressing human μ-opiate receptor. The gist of the method:
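CHO-K1 membranes expressing human μ-opiate receptor incubated 90 min at room temperature with 1 nmol/l [3H]naloxone and WGA-SPA beads in 50 mmol/l Tris-HCl with 0.05% azide, 0.06% BSA. Non-specific binding with 25 μmol/l naloxone; % inhibition at 1 μmol/l, or IC50 converted to Ki via Cheng-Prusoff.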

The structures appear in SMILES notation.

T2 sequence (P35372 whole entry): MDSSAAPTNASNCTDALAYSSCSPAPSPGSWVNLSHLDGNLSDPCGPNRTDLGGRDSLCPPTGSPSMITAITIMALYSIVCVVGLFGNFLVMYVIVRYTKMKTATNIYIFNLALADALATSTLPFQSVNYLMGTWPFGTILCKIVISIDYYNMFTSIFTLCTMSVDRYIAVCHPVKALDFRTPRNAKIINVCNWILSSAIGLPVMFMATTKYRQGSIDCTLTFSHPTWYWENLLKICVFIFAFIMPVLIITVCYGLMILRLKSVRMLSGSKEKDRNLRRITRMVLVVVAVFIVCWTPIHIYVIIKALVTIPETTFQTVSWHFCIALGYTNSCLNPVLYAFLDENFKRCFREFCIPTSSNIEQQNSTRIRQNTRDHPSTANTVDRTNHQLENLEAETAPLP
T1 sequence (P41146 whole entry): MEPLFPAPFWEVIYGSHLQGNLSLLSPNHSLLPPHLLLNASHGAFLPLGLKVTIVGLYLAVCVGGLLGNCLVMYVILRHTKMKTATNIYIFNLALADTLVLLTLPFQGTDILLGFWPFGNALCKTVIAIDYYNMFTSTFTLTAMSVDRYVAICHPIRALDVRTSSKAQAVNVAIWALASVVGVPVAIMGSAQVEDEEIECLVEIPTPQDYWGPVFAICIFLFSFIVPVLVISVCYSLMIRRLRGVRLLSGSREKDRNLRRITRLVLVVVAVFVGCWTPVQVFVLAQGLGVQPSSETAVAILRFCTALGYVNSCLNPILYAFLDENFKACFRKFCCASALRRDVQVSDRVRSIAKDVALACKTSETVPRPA

For the molecule `COc1ccc2c(CN3CCCC(C(=O)N4CCC(c5ccccc5)(N(C)C)CC4)C3)c(C)n(C)c2c1` (stereo not shown) [Example 176, (4-(dimethylamino)-4-phenylpiperidin-1-yl)(1-((6-methoxy-1,2-dimethyl-1H-indol-3-yl)methyl)piperidin-3-yl)methanone], the inhibition – broadly, the percentage by which the read-out fell short of the control – at 1 µM at ORL1 receptor turned out to be 53%; on human μ-opiate receptor, 61%.

Consider `CN(C)C1(c2ccccc2)CCN(C(=O)C2CCCN(Cc3c(-c4ccc(F)cc4)[nH]c4ccccc34)C2)CC1` (stereo not shown) [Example 177, (4-(dimethylamino)-4-phenylpiperidin-1-yl)(1-((2-(4-fluorophenyl)-1H-indol-3-yl)methyl)piperidin-3-yl)methanone], for which the figures for the inhibition at 1 µM on ORL1 receptor and on human μ-opiate receptor were 51% and 94%, respectively.

Turning to `CN(C)C1(c2cccs2)CCN(CCNCc2c[nH]c3ccc(Cl)cc23)CC1` [Example 178, 1-(2-((5-chloro-1H-indol-3-yl)methylamino)ethyl)-N,N-dimethyl-4-(thiophen-2-yl)piperidin-4-amine], the inhibition at 1 µM on ORL1 receptor came to 99%; at human μ-opiate receptor it was 100%.

`CN(C)C1(c2cccs2)CCN(CCNCc2c[nH]c3ccccc23)CC1` [Example 179, 1-(2-((1H-indol-3-yl)methylamino)ethyl)-N,N-dimethyl-4-(thiophen-2-yl)piperidin-4-amine]: the inhibition at 1 µM at ORL1 receptor was 97%; at human μ-opiate receptor it was 76%.

Regarding `CC(C)c1ccc2c(CN(C)CCN3CCC(c4ccccc4)(N(C)C)CC3)c[nH]c2c1` [Example 180, 1-(2-(((6-isopropyl-1H-indol-3-yl)methyl)(methyl)amino)ethyl)-N,N-dimethyl-4-phenylpiperidin-4-amine], the inhibition at 1 µM turned out to be 96% at ORL1 receptor and 95% on human μ-opiate receptor.

As for `CN(CCN1CCC(c2ccccc2)(N(C)C)CC1)Cc1ccc2cc[nH]c2c1` [Example 181, 1-(2-(((1H-indol-6-yl)methyl)(methyl)amino)ethyl)-N,N-dimethyl-4-phenylpiperidin-4-amine], the results for the inhibition at 1 µM at ORL1 receptor and at human μ-opiate receptor were 96% and 34%, respectively.

For `CN(CCN1CCC(c2ccccc2)(N(C)C)CC1)Cc1c[nH]c2ccc(Cl)cc12` [Example 182, 1-(2-(((5-chloro-1H-indol-3-yl)methyl)(methy)amino)ethyl)-N,N-dimethyl-4-phenylpiperidin-4-amine], on ORL1 receptor, the “% Inhibition (ORL1) at 1 μM” value is 95%. The “% Inhibition (μ) at 1 μM” value at human μ-opiate receptor turned out to be 101%.

For `CN(CCN1CCC(c2ccccc2)(N(C)C)CC1)Cc1c[nH]c2ccc(Cl)cc12` [Example 183, 1-(2-(((5-chloro-1H-indol-3-yl)methyl)(methy)amino)ethyl)-N,N-dimethyl-4-phenylpiperidin-4-amine], the “% Inhibition (ORL1) at 1 μM” value on ORL1 receptor came to 95%. Besides, the “% Inhibition (μ) at 1 μM” value at human μ-opiate receptor was determined as 100%.

For `CN(CCN1CCC(c2ccccc2)(N(C)C)CC1)Cc1ccc2cc[nH]c2c1` [Example 184, 1-(2-(((1H-indol-6-yl)methyl)(methy)amino)ethyl)-N,N-dimethyl-4-phenylpiperidin-4-amine], on ORL1 receptor, the “% Inhibition (ORL1) at 1 μM” value was 95%. At human μ-opiate receptor, the “% Inhibition (μ) at 1 μM” value is listed as 99%.

On to `CN(CCN1CCC(c2ccccc2)(N(C)C)CC1)Cc1c[nH]c2ccc(Br)cc12` [Example 185, 1-(2-(((5-bromo-1H-indol-3-yl)methyl)(methyl)amino)ethyl)-N,N-dimethyl-4-phenylpiperidin-4-amine], for which the inhibition at 1 µM at ORL1 receptor stood at 91%; at human μ-opiate receptor, 95%.

As to `CN(CCN1CCC(c2ccccc2)(N(C)C)CC1)Cc1c[nH]c2ccccc12` [Example 186, 1-(2-(((1H-indol-3-yl)methyl)(methy)amino)ethyl)-N,N-dimethyl-4-phenylpiperidin-4-amine], the “% Inhibition (ORL1) at 1 μM” value on ORL1 receptor was determined as 88%. Moreover, the “% Inhibition (μ) at 1 μM” value on human μ-opiate receptor is recorded as 102%.

Turning to `CN(CCN1CCC(c2ccccc2)(N(C)C)CC1)Cc1c[nH]c2ccccc12` [Example 187, 1-(2-(((1H-indol-3-yl)methyl)(methy)amino)ethyl)-N,N-dimethyl-4-phenylpiperidin-4-amine], the “% Inhibition (ORL1) at 1 μM” value at ORL1 receptor was found to be 87%. For the same molecule, the “% Inhibition (μ) at 1 μM” value at human μ-opiate receptor was determined as 100%.

For `COc1ccc2[nH]cc(CNCCN3CCC(c4cccs4)(N(C)C)CC3)c2c1` [Example 188, 1-(2-((5-methoxy-1H-indol-3-yl)methylamino)ethyl)-N,N-dimethyl-4-(thiophen-2-yl)piperidin-4-amine], the inhibition at 1 µM at ORL1 receptor stood at 85%; at human μ-opiate receptor, 99%.

As to `Cc1c(CN(C)CCN2CCC(c3ccccc3)(N(C)C)CC2)c2ccccc2n1C` [Example 189, 1-(2-(((1,2-dimethyl-1H-indol-3-yl)methyl)(methyl)amino)ethyl)-N,N-dimethyl-4-phenylpiperidin-4-amine], the inhibition at 1 µM was determined as 83% on ORL1 receptor and 100% at human μ-opiate receptor.

Turning to `COc1ccc2[nH]cc(CN(C)CCN3CCC(c4ccccc4)(N(C)C)CC3)c2c1` [Example 190, 1-(2-(((5-methoxy-1H-indol-3-yl)methyl)(methyl)amino)ethyl)-N,N-dimethyl-4-phenylpiperidin-4-amine], the inhibition at 1 µM on ORL1 receptor worked out at 80%; at human μ-opiate receptor, 97%.

Regarding `COc1ccc2[nH]cc(CN(C)CCN3CCC(c4ccccc4)(N(C)C)CC3)c2c1` [Example 191, 1-(2-(((5-methoxy-1H-indol-3-yl)methyl)(methyl)amino)ethyl)-N,N-dimethyl-4-phenylpiperidin-4-amine], the “% Inhibition (ORL1) at 1 μM” value on ORL1 receptor is recorded as 80%. Besides, the “% Inhibition (μ) at 1 μM” value on human μ-opiate receptor was determined as 96%.

On to `COc1ccc2[nH]cc(CN(C)CCN3CCC(c4ccccc4)(N(C)C)CC3)c2c1` [Example 192, 1-(2-(((5-methoxy-1H-indol-3-yl)methyl)(methyl)amino)ethyl)-N,N-dimethyl-4-phenylpiperidin-4-amine], for which the “% Inhibition (ORL1) at 1 μM” value on ORL1 receptor worked out at 76%. Also, the “% Inhibition (μ) at 1 μM” value on human μ-opiate receptor was determined as 96%.

On to `COc1ccc2c(c1)c(CN(C)CCN1CCC(c3ccccc3)(N(C)C)CC1)c(C)n2Cc1ccccc1` [Example 193, 1-(2-(((1-benzyl-5-methoxy-2-methyl-1H-indol-3-yl)methyl)(methyl)amino)ethyl)-N,N-dimethyl-4-phenylpiperidin-4-amine], for which the inhibition at 1 µM on ORL1 receptor came to 68%; at human μ-opiate receptor it was 82%.

With `CN(CCN1CCC(c2ccccc2)(N(C)C)CC1)Cc1cccc2[nH]ccc12` [Example 194, 1-(2-(((1H-indol-4-yl)methyl)(methy)amino)ethyl)-N,N-dimethyl-4-phenylpiperidin-4-amine], on ORL1 receptor, the “% Inhibition (ORL1) at 1 μM” value came out at 56%. On human μ-opiate receptor, the “% Inhibition (μ) at 1 μM” value amounted to 99%.

`CN(CCN1CCC(c2ccccc2)(N(C)C)CC1)Cc1cccc2[nH]ccc12` [Example 195, 1-(2-(((1H-indol-4-yl)methyl)(methy)amino)ethyl)-N,N-dimethyl-4-phenylpiperidin-4-amine]: at ORL1 receptor, the “% Inhibition (ORL1) at 1 μM” value was found to be 56%. Also, the “% Inhibition (μ) at 1 μM” value on human μ-opiate receptor was determined as 78%.
